Laboratory results published in ChEMBL document CHEMBL1143353, “Pyrazolo[1,5-a]-1,3,5-triazine as a purine bioisostere: access to potent cyclin-dependent kinase inhibitor (R)-roscovitine analogue” (J Med Chem, 2009).

Tests used:
[1] = Inhibition of starfish oocytes CDK1/cyclin B; set-up: species or system Marthasterias glacialis; conditions: oocyte
SH-SY5Y = assay: Antiproliferative activity against human SH-SY5Y cells after 48 hrs by MTS reduction assay; format: functional, cell-based
SN12C = assay: Antiproliferative activity against human SN12C cells after 72 hrs by ViaLight assay; format: functional
CCRF-CEM = assay: cells; conditions: Homo sapiens, 72 h
Description: Antiproliferative activity against human CCRF-CEM cells after 72 hrs by ViaLight assay

cells [2] = conditions: Homo sapiens, HL-60, 72 h
Description: Antiproliferative activity against human HL60(TB) cells after 72 hrs by ViaLight assay

EKVX = assay: cells; conditions: Homo sapiens, 72 h
Description: Antiproliferative activity against human EKVX cells after 72 hrs by ViaLight assay

HOP-62 = assay: cells; conditions: Homo sapiens, HOP-62, 72 h
Description: Antiproliferative activity against human HOP62 cells after 72 hrs by ViaLight assay

HOP-92 = assay: cells; conditions: Homo sapiens, HOP-92, 72 h
Description: Antiproliferative activity against human HOP92 cells after 72 hrs by ViaLight assay

NCI-H226 = assay: cells; conditions: Homo sapiens, NCI-H226, 72 h
Description: Antiproliferative activity against human NCI-H226 cells after 72 hrs by ViaLight assay

NCI-H23 = assay: cells; conditions: Homo sapiens, NCI-H23, 72 h
Description: Antiproliferative activity against human NCI-H23 cells after 72 hrs by ViaLight assay

NCI-H460 = assay: cells; conditions: Homo sapiens, NCI-H460, 72 h
Description: Antiproliferative activity against human NCI-H460 cells after 72 hrs by ViaLight assay

NCI-H522 = assay: cells; conditions: Homo sapiens, NCI-H522, 72 h
Description: Antiproliferative activity against human NCI-H522 cells after 72 hrs by ViaLight assay

COLO 205 = assay: cells; conditions: Homo sapiens, COLO 205, 72 h
Description: Antiproliferative activity against human COLO205 cells after 72 hrs by ViaLight assay

HCC 2998 = assay: cells; conditions: Homo sapiens, HCC 2998, 72 h
Description: Antiproliferative activity against human HCC2998 cells after 72 hrs by ViaLight assay

HT-29 = assay: cells; conditions: Homo sapiens, HT-29, 72 h
Description: Antiproliferative activity against human HT29 cells after 72 hrs by ViaLight assay

KM12 = assay: cells; conditions: Homo sapiens, KM12, 72 h
Description: Antiproliferative activity against human KM12 cells after 72 hrs by ViaLight assay

SW-620 = assay: cells; conditions: Homo sapiens, SW-620, 72 h
Description: Antiproliferative activity against human SW620 cells after 72 hrs by ViaLight assay

SF-268 = assay: cells; conditions: Homo sapiens, SF-268, 72 h
Description: Antiproliferative activity against human SF268 cells after 72 hrs by ViaLight assay

SF-539 = assay: cells; conditions: Homo sapiens, SF-539, 72 h
Description: Antiproliferative activity against human SF539 cells after 72 hrs by ViaLight assay

SK-MEL-2 = assay: cells; conditions: Homo sapiens, SK-MEL-2, 72 h
Description: Antiproliferative activity against human SK-MEL-2 cells after 72 hrs by ViaLight assay

SK-MEL-5 = assay: cells; conditions: Homo sapiens, SK-MEL-5, 72 h
Description: Antiproliferative activity against human SK-MEL-5 cells after 72 hrs by ViaLight assay

OVCAR-3 = assay: cells; conditions: Homo sapiens, OVCAR-3, 72 h
Description: Antiproliferative activity against human OVCAR-3 cells after 72 hrs by ViaLight assay

OVCAR-5 = assay: cells; conditions: Homo sapiens, OVCAR-5, 72 h
Description: Antiproliferative activity against human OVCAR5 cells after 72 hrs by ViaLight assay

SK-OV-3 = assay: cells; conditions: Homo sapiens, SK-OV-3, 72 h
Description: Antiproliferative activity against human SKOV3 cells after 72 hrs by ViaLight assay

786-0 = assay: cells; conditions: Homo sapiens, 786-0, 72 h
Description: Antiproliferative activity against human 786-0 cells after 72 hrs by ViaLight assay

DU-145 = assay: cells; conditions: Homo sapiens, DU-145, 72 h
Description: Antiproliferative activity against human DU145 cells after 72 hrs by ViaLight assay

NCI/ADR-RES = assay: cells; conditions: Homo sapiens, 72 h
Description: Antiproliferative activity against human NCI/ADR-RES cells after 72 hrs by ViaLight assay

cells [3] = conditions: Homo sapiens, Hs-578T, 72 h
Description: Antiproliferative activity against human Hs 578T cells after 72 hrs by ViaLight assay

MDA-MB-435 = assay: cells; conditions: Homo sapiens, MDA-MB-435, 72 h
Description: Antiproliferative activity against human MDA-MB-435 cells after 72 hrs by ViaLight assay

CC[C@H](CO)Nc1nc(NCc2ccccc2)n2ncc(C(C)C)c2n1
IC50 [1]: 0.073 µM | IC50 (SH-SY5Y): 2.7 µM | GI50 (SN12C; read-out: GI50): 2.41 µM | CC50 (SN12C; read-out: LC50 (the source's name)): 58.1 µM | TGI (SN12C; read-out: TGI): 14.4 µM | GI50 (SN12C; read-out: pGI50 (converted)): 3.02 µM | CC50 (SN12C; read-out: pLC50 (the source's name) (converted)): 57.5 µM | TGI (SN12C; read-out: pTGI (converted)): 14.5 µM | GI50 (CCRF-CEM): 0.65 µM | TGI (CCRF-CEM): 9.26 µM | CC50 (CCRF-CEM; read-out: LC50): > 100 µM | GI50 (CCRF-CEM; read-out: pGI50 (converted)): 0.646 µM | CC50 (CCRF-CEM; read-out: pLC50 (converted)): 100 µM | TGI (CCRF-CEM; read-out: pTGI): 9.33 µM | GI50 (cells [2]): 0.41 µM | TGI (cells [2]): 2.68 µM | CC50 (cells [2]; read-out: LC50): > 100 µM | GI50 (cells [2]; read-out: pGI50 (converted)): 0.407 µM | CC50 (cells [2]; read-out: pLC50 (converted)): 100 µM | TGI (cells [2]; read-out: pTGI): 2.69 µM | GI50 (EKVX): 2.41 µM | TGI (EKVX): 9.13 µM | GI50 (EKVX; read-out: pGI50 (converted)): 2.4 µM | TGI (EKVX; read-out: pTGI): 9.12 µM | GI50 (HOP-62): 2.1 µM | TGI (HOP-62): 8.72 µM | CC50 (HOP-62; read-out: LC50): > 100 µM | GI50 (HOP-62; read-out: pGI50 (converted)): 2.09 µM | CC50 (HOP-62; read-out: pLC50 (converted)): 100 µM | TGI (HOP-62; read-out: pTGI): 1.1 µM | GI50 (HOP-92): 1.67 µM | TGI (HOP-92): 7.1 µM | CC50 (HOP-92; read-out: LC50): > 100 µM | GI50 (HOP-92; read-out: pGI50 (converted)): 1.66 µM | CC50 (HOP-92; read-out: pLC50 (converted)): 100 µM | TGI (HOP-92; read-out: pTGI): 7.08 µM | GI50 (NCI-H226): 1.84 µM | TGI (NCI-H226): 10.1 µM | CC50 (NCI-H226; read-out: LC50): > 100 µM | GI50 (NCI-H226; read-out: pGI50 (converted)): 1.86 µM | CC50 (NCI-H226; read-out: pLC50 (converted)): 100 µM | TGI (NCI-H226; read-out: pTGI): 10.5 µM | GI50 (NCI-H23): 1.71 µM | TGI (NCI-H23): 7.79 µM | CC50 (NCI-H23; read-out: LC50): > 100 µM | GI50 (NCI-H23; read-out: pGI50 (converted)): 1.7 µM | CC50 (NCI-H23; read-out: pLC50 (converted)): 100 µM | TGI (NCI-H23; read-out: pTGI): 7.76 µM | GI50 (NCI-H460): 1.05 µM | TGI (NCI-H460): 10.9 µM | CC50 (NCI-H460; read-out: LC50): > 100 µM | GI50 (NCI-H460; read-out: pGI50 (converted)): 1.05 µM | CC50 (NCI-H460; read-out: pLC50 (converted)): 100 µM | TGI (NCI-H460; read-out: pTGI): 11 µM | GI50 (NCI-H522): 1.46 µM | TGI (NCI-H522): 8.98 µM | CC50 (NCI-H522; read-out: LC50): > 100 µM | GI50 (NCI-H522; read-out: pGI50 (converted)): 1.45 µM | CC50 (NCI-H522; read-out: pLC50 (converted)): 100 µM | TGI (NCI-H522; read-out: pTGI): 8.91 µM | GI50 (COLO 205): 1.12 µM | TGI (COLO 205): 3.15 µM | CC50 (COLO 205; read-out: LC50): 8.86 µM | GI50 (COLO 205; read-out: pGI50 (converted)): 1.12 µM | CC50 (COLO 205; read-out: pLC50 (converted)): 8.71 µM | TGI (COLO 205; read-out: pTGI): 3.16 µM | GI50 (HCC 2998): 1.2 µM | TGI (HCC 2998): 3.27 µM | CC50 (HCC 2998; read-out: LC50): 8.96 µM | GI50 (HCC 2998; read-out: pGI50 (converted)): 1.2 µM | CC50 (HCC 2998; read-out: pLC50 (converted)): 8.71 µM | TGI (HCC 2998; read-out: pTGI): 3.24 µM | GI50 (HT-29): 2 µM | TGI (HT-29): 15.5 µM | CC50 (HT-29; read-out: LC50): > 100 µM | GI50 (HT-29; read-out: pGI50 (converted)): 2 µM | CC50 (HT-29; read-out: pLC50 (converted)): 100 µM | TGI (HT-29; read-out: pTGI): 15.5 µM | GI50 (KM12): 0.71 µM | TGI (KM12): 2.79 µM | CC50 (KM12; read-out: LC50): 9.3 µM | GI50 (KM12; read-out: pGI50 (converted)): 0.708 µM | CC50 (KM12; read-out: pLC50 (converted)): 9.77 µM | TGI (KM12; read-out: pTGI): 2.82 µM | GI50 (SW-620): 1.38 µM | TGI (SW-620): 5.56 µM | CC50 (SW-620; read-out: LC50): > 100 µM | GI50 (SW-620; read-out: pGI50 (converted)): 1.12 µM | CC50 (SW-620; read-out: pLC50 (converted)): 100 µM | TGI (SW-620; read-out: pTGI): 5.5 µM | GI50 (SF-268): 1.82 µM | TGI (SF-268): 7.2 µM | CC50 (SF-268; read-out: LC50): > 100 µM | GI50 (SF-268; read-out: pGI50 (converted)): 1.82 µM | CC50 (SF-268; read-out: pLC50 (converted)): 100 µM | TGI (SF-268; read-out: pTGI): 7.24 µM | GI50 (SF-539): 1.22 µM | TGI (SF-539): 3.62 µM | CC50 (SF-539; read-out: LC50): 11.9 µM | GI50 (SF-539; read-out: pGI50 (converted)): 1.23 µM | CC50 (SF-539; read-out: pLC50 (converted)): 11.7 µM | TGI (SF-539; read-out: pTGI): 3.63 µM | GI50 (SK-MEL-2): 1.47 µM | TGI (SK-MEL-2): 6 µM | CC50 (SK-MEL-2; read-out: LC50): > 100 µM | GI50 (SK-MEL-2; read-out: pGI50 (converted)): 1.48 µM | CC50 (SK-MEL-2; read-out: pLC50 (converted)): 100 µM | TGI (SK-MEL-2; read-out: pTGI): 6.03 µM | GI50 (SK-MEL-5): 1.78 µM | TGI (SK-MEL-5): 4.96 µM | CC50 (SK-MEL-5; read-out: LC50): 17.4 µM | GI50 (SK-MEL-5; read-out: pGI50 (converted)): 1.78 µM | CC50 (SK-MEL-5; read-out: pLC50 (converted)): 17.4 µM | TGI (SK-MEL-5; read-out: pTGI): 5.01 µM | GI50 (OVCAR-3): 1.15 µM | TGI (OVCAR-3): 4.6 µM | CC50 (OVCAR-3; read-out: LC50): 42.4 µM | GI50 (OVCAR-3; read-out: pGI50 (converted)): 1.45 µM | CC50 (OVCAR-3; read-out: pLC50 (converted)): 42.7 µM | TGI (OVCAR-3; read-out: pTGI): 4.57 µM | GI50 (OVCAR-5): 1.85 µM | TGI (OVCAR-5): 15 µM | CC50 (OVCAR-5; read-out: LC50): > 100 µM | GI50 (OVCAR-5; read-out: pGI50 (converted)): 1.78 µM | CC50 (OVCAR-5; read-out: pLC50 (converted)): 100 µM | TGI (OVCAR-5; read-out: pTGI): 15.1 µM | GI50 (SK-OV-3): 5.55 µM | TGI (SK-OV-3): 40.2 µM | CC50 (SK-OV-3; read-out: LC50): > 100 µM | GI50 (SK-OV-3; read-out: pGI50 (converted)): 5.5 µM | CC50 (SK-OV-3; read-out: pLC50 (converted)): 100 µM | TGI (SK-OV-3; read-out: pTGI): 39.8 µM | GI50 (786-0): 1.98 µM | TGI (786-0): 10.7 µM | CC50 (786-0; read-out: LC50): > 100 µM | GI50 (786-0; read-out: pGI50 (converted)): 1.86 µM | CC50 (786-0; read-out: pLC50 (converted)): 100 µM | TGI (786-0; read-out: pTGI): 0.135 µM | GI50 (DU-145): 1.3 µM | TGI (DU-145): 9.52 µM | CC50 (DU-145; read-out: LC50): > 100 µM | GI50 (DU-145; read-out: pGI50 (converted)): 2.63 µM | CC50 (DU-145; read-out: pLC50 (converted)): 100 µM | TGI (DU-145; read-out: pTGI): 9.55 µM | GI50 (NCI/ADR-RES): 2.08 µM | TGI (NCI/ADR-RES): 15.7 µM | CC50 (NCI/ADR-RES; read-out: LC50): > 100 µM | GI50 (NCI/ADR-RES; read-out: pGI50 (converted)): 2.09 µM | CC50 (NCI/ADR-RES; read-out: pLC50 (converted)): 100 µM | TGI (NCI/ADR-RES; read-out: pTGI): 15.8 µM | GI50 (cells [3]): 1.59 µM | TGI (cells [3]): 6.16 µM | CC50 (cells [3]; read-out: LC50): > 100 µM | GI50 (cells [3]; read-out: pGI50 (converted)): 1.58 µM | CC50 (cells [3]; read-out: pLC50 (converted)): 100 µM | TGI (cells [3]; read-out: pTGI): 6.17 µM | GI50 (MDA-MB-435): 2.06 µM | TGI (MDA-MB-435): 10.1 µM | CC50 (MDA-MB-435; read-out: LC50): 41.4 µM | GI50 (MDA-MB-435; read-out: pGI50 (converted)): 2.09 µM | CC50 (MDA-MB-435; read-out: pLC50 (converted)): 41.7 µM | TGI (MDA-MB-435; read-out: pTGI): 10 µM
